The values that follow are results of earlier work, collected in patent US5525634A, “Colonic drug delivery system” (priority 1994, dated 1996).

For data set [1] the following is noted: small intestinal mucosa / esterases.
A further data set deals with morphine-dependent rats. To be noted: for time to diarrhea: direct colonic administration; for time to diarrhea / time to diarrhea, withdrawal behavior and tail skin temperature response: morphine-dependent rats; for time to diarrhea, withdrawal behavior and tail skin temperature response: oral administration.

Consider `CC(=O)Oc1ccc(C(c2ccc(OC(C)=O)cc2)c2ccccn2)cc1` [bisacodyl], for which the “passage through / cleavage in the small intestine” value in data set [1] is “readily cleaved by the esterases in the small intestine”.

As to `C=C1CCC2(O)C3Cc4ccc(OC5OC(C(=O)O)C(O)C(O)C5O)c5c4C2(CCN3CC2CC2)C1O5` (stereo not shown) [nalmefene glucuronide], in the data set on morphine-dependent rats, the time to diarrhea is 5 to 8 min and the “activity on subcutaneous administration” value is “inactive”.

`C=C1CC[C@@]2(O)[C@H]3Cc4ccc(O)c5c4[C@@]2(CCN3CC2CC2)[C@H]1O5` [nalmefene]: the “time to diarrhea, withdrawal behavior and tail skin temperature response” value in the data set with morphine-dependent rats is not above 15 min.

On to `C=CCN1CC[C@]23c4c5ccc(O[C@@H]6O[C@H](C(=O)O)[C@@H](O)[C@H](O)[C@H]6O)c4O[C@H]2C(=O)CC[C@@]3(O)[C@H]1C5` [naloxone glucuronide], for which, in the data set on morphine-dependent rats, the time to diarrhea is 5 to 8 min and the “activity on subcutaneous administration” value is “inactive”.

As for `C=CCN1CC[C@]23c4c5ccc(O)c4O[C@H]2C(=O)CC[C@@]3(O)[C@H]1C5` [naloxone], in the data set with morphine-dependent rats, the “time to diarrhea, withdrawal behavior and tail skin temperature response” value was not above 15 min.
